These results are taken from paper PMC3431920 (Molecular bioSystems, 2012).

One series in a line: Water solubility. As to conditions: result in words; method not given. It counts as physicochemical.
For a further series, the system named is MCF-7 cells. The series can be described thus: MTS cell viability assay, 24h treatment. In kind it is cell-based. Particulars: result in words.

`C[C@@H](c1ccccc1)N(CC(N)=O)C(=O)CN(C(=O)CN(CCCCN)C(=O)CN(C(=O)CN(C(=O)CN(CCCCN)C(=O)CN(C(=O)CN(C(=O)CN(CCCCN)C(=O)CN(C(=O)CN(C(=O)CN(CCCCN)C(=O)c1ccc2c(c1)C(=O)OC21c2ccc(O)cc2Oc2cc(O)ccc21)[C@@H](C)c1ccccc1)[C@@H](C)c1ccccc1)[C@@H](C)c1ccccc1)[C@@H](C)c1ccccc1)[C@@H](C)c1ccccc1)[C@@H](C)c1ccccc1)[C@@H](C)c1ccccc1` [Construct 4]: in the series “Water solubility”, the water solubility result is listed as “good water solubility”.
Turning to `N=C(N)NCCC[C@H](NC(=O)[C@H](CCCNC(=N)N)NC(=O)[C@H](CCCNC(=N)N)NC(=O)[C@H](CCCNC(=N)N)NC(=O)[C@H](CCCNC(=N)N)NC(=O)[C@H](CCCNC(=N)N)NC(=O)[C@H](CCCNC(=N)N)NC(=O)[C@H](CCCNC(=N)N)NC(=O)c1ccc2c(c1)C(=O)OC21c2ccc(O)cc2Oc2cc(O)ccc21)C(N)=O` [Construct 1], the “cytotoxicity (in words)” value with MCF-7 cells was “minor cytotoxicity”.
